The source of these data is patent publication US20240150377A1, “MODULATORS OF CYSTIC FIBROSIS TRANSMEMBRANE CONDUCTANCE REGULATOR” (VERTEX PHARMACEUTICALS INCORPORATED, priority 2020, published 2024).

pEC50: −log10 of the molar value. Read-outs that look alike come from different tables or passages of the source. Where only a bound is given, the exact number is not on record here.

The pEC50 is the negative decadic logarithm of the EC50, by convention in mol/L.

This test concerns the target T1, CFTR (Homo sapiens, UniProt P13569, DEL508-508).
T1 construct: endogenous in cells; host or cells: primary human bronchial epithelial cells from CF subjects (F508del/MF-HBE), differentiated at air-liquid interface
The test can be described thus: HBE assay: Ussing chamber assay of CFTR-mediated short-circuit currents. It counts as cell-based. Summed up:
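CFTR-mediated Isc (μA/cm²) equals the peak response to apical 20 μM forskolin minus the residual after a 20 μM each BPO/GlyH-101/CFTR inhibitor 172 cocktail, recorded in Ussing chambers at Vhold 0 mV, 37 °C, pH 7.4, with 30 μM apical amiloride. Cells were F508del/MF HBE cultures preincubated 18-24 h with corrector (concentration range or 10 μM) plus 1 μM ivacaftor in 20% human serum.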

Where [1] appears, read: Table 13; at 10 μM; read-out: HBE Activity at 10 μM (%).
Where [2] appears, read: HBE assay; read-out: HBE Max activity (%).
Where [3] appears, read: Table 11; at 10 μM; read-out: HBE Activity at 10 μM (%).
Where [4] appears, read: HBE assay; 10 μM; read-out: HBE Activity at 10 μM (%).
Where [5] appears, read: Table 11; read-out: HBE Max Activity (%).
Where [6] appears, read: Table 10; at 10 μM; read-out: HBE activity at 10 (μM) (%).
[7] abbreviates: Table 10; read-out: HBE Max activity (%).
Setting [8] is: Table 12; read-out: HBE Max Activity (%).
The mark [9] stands for this setting: Table 13; read-out: HBE Max Activity (%).

T1 sequence (P13569 with tags, fused parts or gaps DEL508-508): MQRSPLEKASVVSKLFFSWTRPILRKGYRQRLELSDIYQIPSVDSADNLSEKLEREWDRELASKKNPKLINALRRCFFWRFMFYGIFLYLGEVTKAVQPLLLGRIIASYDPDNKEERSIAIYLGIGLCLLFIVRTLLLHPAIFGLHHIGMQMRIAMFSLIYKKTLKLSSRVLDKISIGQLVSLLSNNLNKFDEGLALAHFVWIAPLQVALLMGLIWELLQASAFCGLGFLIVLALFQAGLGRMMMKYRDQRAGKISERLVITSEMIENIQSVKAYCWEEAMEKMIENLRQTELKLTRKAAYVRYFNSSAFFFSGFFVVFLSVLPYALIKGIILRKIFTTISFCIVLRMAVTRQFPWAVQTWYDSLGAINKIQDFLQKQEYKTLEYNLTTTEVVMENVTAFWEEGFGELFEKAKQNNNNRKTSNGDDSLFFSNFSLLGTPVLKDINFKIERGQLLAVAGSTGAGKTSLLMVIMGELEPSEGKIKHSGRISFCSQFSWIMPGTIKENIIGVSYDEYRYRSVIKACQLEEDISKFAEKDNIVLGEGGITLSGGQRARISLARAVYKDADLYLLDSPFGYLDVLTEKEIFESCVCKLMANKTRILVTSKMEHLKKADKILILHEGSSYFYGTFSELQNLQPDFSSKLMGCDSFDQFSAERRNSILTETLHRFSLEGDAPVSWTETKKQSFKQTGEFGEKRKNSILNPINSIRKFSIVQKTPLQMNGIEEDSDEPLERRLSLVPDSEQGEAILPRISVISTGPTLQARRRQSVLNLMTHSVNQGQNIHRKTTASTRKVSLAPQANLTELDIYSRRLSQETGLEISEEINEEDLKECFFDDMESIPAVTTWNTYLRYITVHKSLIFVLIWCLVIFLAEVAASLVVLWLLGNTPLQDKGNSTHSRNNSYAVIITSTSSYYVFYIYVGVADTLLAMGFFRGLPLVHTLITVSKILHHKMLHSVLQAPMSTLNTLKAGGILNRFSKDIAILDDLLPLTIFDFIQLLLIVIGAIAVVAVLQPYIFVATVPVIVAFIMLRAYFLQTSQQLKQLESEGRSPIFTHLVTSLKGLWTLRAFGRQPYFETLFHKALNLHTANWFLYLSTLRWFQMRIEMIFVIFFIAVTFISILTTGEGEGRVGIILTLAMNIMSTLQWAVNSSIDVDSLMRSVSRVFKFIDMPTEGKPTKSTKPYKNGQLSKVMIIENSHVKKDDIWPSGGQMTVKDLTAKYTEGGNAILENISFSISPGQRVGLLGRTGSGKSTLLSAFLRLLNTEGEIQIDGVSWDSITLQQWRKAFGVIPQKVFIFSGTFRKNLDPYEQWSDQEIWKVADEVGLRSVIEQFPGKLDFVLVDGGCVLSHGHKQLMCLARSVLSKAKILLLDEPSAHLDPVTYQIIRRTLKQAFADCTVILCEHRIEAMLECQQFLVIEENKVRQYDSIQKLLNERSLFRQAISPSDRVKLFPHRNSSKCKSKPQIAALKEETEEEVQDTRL

Take `Cc1cccc(C)c1-c1cc2nc(n1)NS(=O)(=O)c1cccc(c1)C(=O)N(Cc1nccc(N(C)C(C)C)n1)[C@H](CC(C)C)CO2` [Compound 552]: under “Table 12; at 10 μM; read-out: HBE Activity at 10 μM (%)”, the activation at 10 µM is greater than 600%.
On to `Cc1cccc(C)c1-c1cc2nc(n1)NS(=O)(=O)c1cccc(c1)C(=O)N(CC(=O)N1C[C@H](C)C[C@H](C)C1)[C@H](CC(C)(C)C)CO2` [Compound 181], for which the activation at 10 µM under setting [1] is greater than 600%.
Still for that read-out and setting: the figure for `Cc1cccc(C)c1-c1cc2nc(n1)NS(=O)(=O)c1cccc(c1)C(=O)N(Cc1nc(Br)ccc1F)[C@H](CC(C)(C)C)CO2` [Compound 372] is greater than 600%.
Consider `Cc1cccc(C)c1-c1cc2nc(n1)NS(=O)(=O)c1cccc(c1)C(=O)N(Cc1ccc(OC(F)(F)F)cn1)[C@H](CC(C)(C)C)CO2` [Compound 1412], for which the pEC50 (HBE assay; read-out: HBE EC50) is greater than 6.00. In addition, the Emax under setting [2] is greater than 60%.
For `Cc1cccc(C)c1-c1cc2nc(n1)NS(=O)(=O)c1cccc(c1)C(=O)N(Cc1ccc(N3CCOCC3)cn1)C(CC(C)(C)C)CO2` (stereo not drawn) [Compound 332], under setting [3], the activation at 10 µM was less than 30%.
Turning to `Cc1cccc(C)c1-c1cc2nc(n1)NS(=O)(=O)c1cccc(c1)C(=O)N(Cc1cccc(N(C)CC(C)(C)C3CC3)n1)[C@H](CC(C)(C)C)CO2` [Compound 1421], the activation at 10 µM under setting [4] is greater than 60%.
Turning to `Cc1cccc(C)c1-c1cc2nc(n1)NS(=O)(=O)c1cccc(c1)C(=O)N(Cc1cc(CO)ccn1)[C@H](CC(C)(C)C)CO2` [Compound 811], the pEC50 (Table 11; read-out: HBE EC50) was greater than 6.00. Moreover, under setting [5], the Emax was greater than 60%.
Turning to `Cc1cccc(C)c1-c1cc2nc(n1)NS(=O)(=O)c1cccc(c1)C(=O)N(Cc1cnn(C)c1C)[C@H](CC(C)(C)C)CO2` [Compound 824], the activation at 10 µM under setting [6] is greater than 60%.
For the compound `Cc1cccc(C)c1-c1cc2nc(n1)NS(=O)(=O)c1cccc(c1)C(=O)N(CC1CCC(NCC(=O)O)CC1)[C@H](CC(C)(C)C)CO2` (stereo partly drawn) [Compound 911], the pEC50 (Table 10; read-out: HBE EC50) is 4.52 to 5.52. Further, the Emax under setting [7] lay in the range of 30 to 60%.
In the case of `Cc1cccc(C)c1-c1cc2nc(n1)NS(=O)(=O)c1cccc(c1)C(=O)N(Cc1ncc(N3CCC(C(C)(C)C)C3)cn1)[C@H](CC(C)(C)C)CO2` (stereo partly drawn) [Compound 875], the pEC50 (Table 12; read-out: HBE EC50) was greater than 6.00. Also, the Emax under setting [8] was greater than 60%.
Consider `Cc1cccc(C)c1-c1cc2nc(n1)NS(=O)(=O)c1cccc(c1)C(=O)N(Cc1cc3c(cn1)OCCO3)[C@H](CC(C)(C)C)CO2` [Compound 758], for which, under setting [3], the activation at 10 µM was greater than 60%.
Take `Cc1cccc(C)c1-c1cc2nc(n1)NS(=O)(=O)c1cccc(c1)C(=O)N(CC1CCC(C)(C)CO1)[C@H](CC(C)(C)C)CO2` (single isomer, unassigned) [Compound 23]: where the note is “Table 11; read-out: HBE EC50”, the pEC50 is greater than 6.00.
For `Cc1cccc(C)c1-c1cc2nc(n1)NS(=O)(=O)c1cccc(c1)C(=O)N(CC1CC(N3C[C@@H](C)O[C@@H](C)C3)C1)[C@H](CC(C)(C)C)CO2` (single isomer, unassigned) [Compound 63], the pEC50 (read-out: HBE EC50; Table 10) was greater than 6.00.
In the case of `Cc1cccc(C)c1-c1cc2nc(n1)NS(=O)(=O)c1cccc(c1)C(=O)N(CC(=O)N(C)Cc1ccccn1)[C@H](CC(C)(C)C)CO2` [Compound 221], for the setting “Table 12; read-out: HBE EC50”, the pEC50 was greater than 6.00. Moreover, the Emax under setting [8] was greater than 60%.
As to `Cc1cccc(C)c1-c1cc2nc(n1)NS(=O)(=O)c1cccc(c1)C(=O)N(CC(=O)N1CCC(C(C)(C)C)CC1)[C@H](CC(C)(C)C)CO2` [Compound 210], under setting [1], the activation at 10 µM was greater than 600%.
For `Cc1cccc(C)c1-c1cc2nc(n1)NS(=O)(=O)c1cccc(c1)C(=O)N(CC1CCC(O)(CO)CC1)[C@H](CC(C)(C)C)CO2` (stereo partly drawn) [Compound 908], the pEC50 (Table 10; read-out: HBE EC50) was greater than 6.00. The Emax under setting [7] is greater than 60%.
As to `Cc1cccc(C)c1-c1cc2nc(n1)NS(=O)(=O)c1cccc(c1)C1Oc3nc4ccccc4cc3CN1[C@H](CC(C)(C)C)CO2` (stereo partly drawn) [Compound 755], the activation at 10 µM under setting [6] was greater than 60%.
In the case of `Cc1cccc(C)c1-c1cc2nc(n1)NS(=O)(=O)c1cccc(c1)C(=O)N(Cc1ncc(N3CC4(CCOCC4)C3)cn1)[C@H](CC(C)(C)C)CO2` [Compound 866], the pEC50 (Table 13; read-out: HBE EC50) is greater than 6.00. In addition, the Emax under setting [9] is greater than 60%.
For `Cc1cccc(C)c1-c1cc2nc(n1)NS(=O)(=O)c1cccc(c1)C(=O)N(Cc1cccc(N(CCO)C(C)C)n1)[C@H](CC(C)(C)C)CO2` [Compound 530], the pEC50 (Table 13; read-out: HBE EC50) is greater than 6.00. For the same compound, under setting [9], the Emax was greater than 60%.
Regarding `Cc1cccc(C)c1-c1cc2nc(n1)NS(=O)(=O)c1cccc(c1)C(=O)N(Cc1cccnc1N1CCOCC1)[C@H](CC(C)(C)C)CO2` [Compound 374], the pEC50 (Table 10; read-out: HBE EC50) was greater than 6.00. Also, the Emax under setting [7] is greater than 60%.
Turning to `Cc1cccc(C)c1-c1cc2nc(n1)NS(=O)(=O)c1cccc(c1)C(=O)N(CC(=O)N1CCCC3(CCC3)C1)[C@H](CC(C)(C)C)CO2` [Compound 169], under setting [1], the activation at 10 µM is greater than 600%.
As to `Cc1cccc(C)c1-c1cc2nc(n1)NS(=O)(=O)c1cccc(c1)C(=O)N(Cc1nc(N(C)CC(C)(C)C)ccc1C(F)(F)F)[C@H](CC(C)(C)C)CO2` [Compound 457], where the note is “Table 12; read-out: HBE EC50”, the pEC50 was greater than 6.00. For the same compound, the Emax under setting [8] is greater than 60%.
On the same counts, the results for `Cc1cccc(C)c1-c1cc2nc(n1)NS(=O)(=O)c1cccc(c1)C(=O)C(Cc1ccc(C3CCCOC3)cn1)[C@H](CC(C)(C)C)CO2` (stereo partly drawn) [Compound 1065] are greater than 6.00 and greater than 60%.
As to `Cc1cccc(C)c1-c1cc2nc(n1)NS(=O)(=O)c1cccc(c1)C(=O)N(Cc1cc(N3CCOCC3)ccn1)[C@H](CC(C)(C)C)CO2` [Compound 375], the pEC50 (Table 10; read-out: HBE EC50) was greater than 6.00. Moreover, the Emax under setting [7] is greater than 60%.
Take `COC1(C)CCN(c2cnc(CN3C(=O)c4cccc(c4)S(=O)(=O)Nc4nc(cc(-c5c(C)cccc5C)n4)OC[C@H]3CC(C)(C)C)nc2)C1` (stereo partly drawn) [Compound 543]: the pEC50 (Table 12; read-out: HBE EC50) is greater than 6.00. Further, under setting [8], the Emax was greater than 60%.
On to `Cc1cccc(C)c1-c1cc2nc(n1)NS(=O)(=O)c1cccc(c1)C(=O)N(Cc1cccc(C(C)C)n1)[C@H](CC(C)(C)C)CO2` [Compound 729], for which, where the note is “Table 11; read-out: HBE EC50”, the pEC50 was greater than 6.00. Moreover, the Emax under setting [5] is greater than 60%.
In the case of `Cc1cccc(C)c1-c1cc2nc(n1)NS(=O)(=O)c1cccc(c1)C(=O)N(C[C@H]1CC[C@@H](O)CC1)[C@H](CC(C)(C)C)CO2` (single isomer, unassigned) [Compound 151], the pEC50 (Table 10; read-out: HBE EC50) was greater than 6.00. For the same compound, under setting [7], the Emax was greater than 60%.
For the compound `Cc1cccc(C)c1-c1cc2nc(n1)NS(=O)(=O)c1cccc(c1)C(=O)N(Cc1cccc(CO)n1)[C@H](CC(C)(C)C)CO2` [Compound 816], the pEC50 (Table 11; read-out: HBE EC50) is greater than 6.00. Moreover, under setting [5], the Emax was greater than 60%.
`Cc1cccc(C)c1-c1cc2nc(n1)NS(=O)(=O)c1cccc(c1)C(=O)N(Cc1cccc(N(C)CC(C)(C)C)n1)[C@H](CC(C)(C)C)CO2` [Compound 133, (11R)-6-(2,6-Dimethylphenyl)-11-(2,2-dimethylpropyl)-12-[[6-[2,2-dimethylpropyl(methyl)amino]-2-pyridyl]methyl]-2,2-dioxo-9-oxa-2λ^6-thia-3,5,12,19-tetrazatricyclo[12.3.1.14,8]nonadeca-1(18),4(19),5,7,14,16-hexaen-13-one]: where the note is “Table 11; read-out: HBE EC50”, the pEC50 was greater than 6.00. Also, the Emax under setting [5] was greater than 60%.
`Cc1cccc(C)c1-c1cc2nc(n1)NS(=O)(=O)c1cccc(c1)C(=O)N(Cc1ncc(N3CC4CC3CO4)cn1)[C@H](CC(C)(C)C)CO2` (stereo partly drawn) [Compound 545]: for the setting “Table 12; read-out: HBE EC50”, the pEC50 is greater than 6.00. The Emax under setting [8] is greater than 60%.
Regarding `Cc1cccc(C)c1-c1cc2nc(n1)NS(=O)(=O)c1cccc(c1)C(=O)N(Cc1ncc(C3CCOCC3)cn1)[C@H](CC(C)(C)C)CO2` [Compound 634], under “Table 11; read-out: HBE EC50”, the pEC50 is greater than 6.00. The Emax under setting [5] is greater than 60%.
For `Cc1cccc(C)c1-c1cc2nc(n1)NS(=O)(=O)c1cccc(c1)C(=O)N(Cc1ncc(N3CCC4(CC4)C3)cn1)[C@H](CC(C)(C)C)CO2` [Compound 1504], the activation at 10 µM under setting [4] is greater than 60%.
Consider `Cc1cccc(C)c1-c1cc2nc(n1)NS(=O)(=O)c1cccc(c1)C(=O)N(CC1CCC(NCC(=O)O)CC1)[C@H](CC(C)(C)C)CO2` (stereo partly drawn) [Compound 912], for which, under setting [6], the activation at 10 µM is less than 300%.
For the compound `CCC(=O)CN1C(=O)c2cccc(c2)S(=O)(=O)Nc2nc(cc(-c3c(C)cccc3C)n2)OC[C@H]1CC(C)(C)C` [Compound 259], the activation at 10 µM under setting [1] was greater than 600%.
Take `Cc1cccc(C)c1-c1cc2nc(n1)NS(=O)(=O)c1cccc(c1)C(=O)N(CC1CCC(C)(C)CO1)[C@H](CC(C)(C)C)CO2` (single isomer, unassigned) [Compound 22]: the pEC50 (Table 11; read-out: HBE EC50) was greater than 6.00. For the same compound, the Emax under setting [5] was greater than 60%.
Regarding `Cc1cccc(C)c1-c1cc2nc(n1)NS(=O)(=O)c1cccc(c1)C(=O)N(CC1CC(C)(C)OC(C)(C)C1)[C@H](CC(C)(C)C)CO2` [Compound 30, (11R)-6-(2,6-Dimethylphenyl)-11-(2,2-dimethylpropyl)-12-[(2,2,6,6-tetramethyloxan-4-yl)methyl]-9-oxa-2λ^6-thia-3,5,12,19-tetraazatricyclo[12.3.1.14,8]nonadeca-1(18),4,6,8(19),14,16-hexaene-2,2,13-trione], the activation at 10 µM under setting [3] was greater than 60%.
For `Cc1cccc(C)c1-c1cc2nc(n1)NS(=O)(=O)c1cccc(c1)C(=O)N(Cc1ccc(N3CCC(C)(C)C3)nc1)[C@H](CC(C)(C)C)CO2` [Compound 883], for the setting “Table 12; read-out: HBE EC50”, the pEC50 is greater than 6.00. Moreover, the Emax under setting [8] is greater than 60%.
`CCOc1cnc(CN2C(=O)c3cccc(c3)S(=O)(=O)Nc3nc(cc(-c4c(C)cccc4C)n3)OC[C@H]2CC2CCC2)nc1` [Compound 1487]: the pEC50 (HBE assay; read-out: HBE EC50) was greater than 6.00. Also, under setting [2], the Emax is greater than 60%.
